Patent EP4417607A1, “HETEROCYCLIC COMPOUND AS SOS1 INHIBITOR AND USES THEREOF” (Nanjing Zaiming Pharmaceutical Co., Ltd., priority 2021, dated 2023)

test system: p-ERK pathway in H358 cells; assay: p-ERK pathway inhibition in H358 cells (Advanced phospho-ERK (Thr202/Tyr204) cellular kit, HTRF); type: cell-based; conditions: Homo sapiens, NCI-H358, 1 h compound incubation
Procedure: The effect of the compounds of the present invention on H358 cell p-ERK pathway was assessed by Advanced phospho-ERK (Thr202/Tyr204) cellular kit method.
The experimental procedures were summarized as follows: H358 cells (ATCC, CRL-5807) were cultured in RPMI1640 (ThermoFisher, A1049101) complete medium containing 10% FBS (Gibco, 10100147) and 100 U/mL penicillin-streptomycin mixed solution (Gibco, 15140163). When the coverage of the cells in the culture vessel reached 80-90%, the cells were pipetted and seeded in a 96-well plate (Corning, 3599) at 50000 cells/well (90 µL RPMI1640 complete medium), and the plate was left to stand for 5 min, cultured in an incubator at 37 °C with 5% CO2 for 6 h, replaced with a serum-free RPMI1640, and starved overnight.
After incubation overnight, 10 µL of a diluted test compound was added to each well using a multi-channel pipette, and the 96-well plate was cultured in an incubator at 37 °C with 5% CO2 for 1 h. The supernatant was poured. The cells were washed once with PBS. 50 µL of a lysis buffer (Advanced phospho-ERK (Thr202/Tyr204) cellular kit, 64AERPEH) was added to each well. The plate was shaken at room temperature at 450 rpm for 1 h. After the cells were completely lysed, 16 µL of the supernatant was added to a 384-well plate (PE, 6007299), mixed energy donor Eu and energy acceptor D2 (D2/Eu = 1:1) were added, and the plate was incubated at room temperature for 4 h. HTRF on the microplate reader was selected for plate reading, Ratio = Signal 665 nm/Signal 620 nm × 10^4. In this experiment, the cell-free group (replaced with 1640 medium) was used as the 100% inhibition group, and the compound-free group in which the cell was added was used as the 0% inhibition group.
The inhibition percentage of H358 cell p-ERK pathway by the compounds of the present invention could be calculated by the following formula: [formula]
IC50 values of the compounds were calculated from 8 concentration points using XLfit (ID Business Solutions Ltd., UK) software by the following formula: Y = Bottom + (Top−Bottom)/(1+10^(∧)((logIC50−X)×slopefactor)) [formula]
Y is the inhibition percentage, X is the logarithmic value of the concentration of the test compound, Bottom is the minimum inhibition percentage, Top is the maximum inhibition percentage, and slope factor is the slope coefficient of the curve. The default fitted curve was used to fit the slope of the S-shaped curve to determine the IC50 value. Table 2. Results of p-ERK inhibition test by the compounds of the present invention

Row | IC50 [nM] | Compound
1 | 49.1 | Cc1nc(N[C@H](C)c2cccc(C(F)F)c2F)c2cn(C3(CF)CC3)c(=O)c(N3CCN(CC#N)CC3)c2n1 [Example 134, (R)-2-(4-(4-((1-(3-(difluoromethyl)-2-fluorophenyl)ethyl)amino)-6-(1-(fluoromethyl)cyclopropyl)-2-methyl-7-oxo-6,7-dihydropyrido[4,3-d]pyrimidin-8-yl)piperazin-1-yl)acetonitrile]
2 | 167 | Cc1nc(N[C@H](C)c2cccc(C(F)F)c2F)c2cn(C3(CF)CC3)c(=O)c(N3CCOCC3=O)c2n1 [Example 172, (R)-4-(4-((1-(3-(difluoromethyl)-2-fluorophenyl)ethyl)amino)-6-(1-(fluoromethyl)cyclopropyl)-2-methyl-7-oxo-6,7-dihydropyrido[4,3-d]pyrimidin-8-yl)morpholine-3-one]
3 | 98.3 | Cc1nc(N[C@H](C)c2cccc(C(F)F)c2F)c2cn(C3(CF)CC3)c(=O)c(N3CCC(C)(C#N)CC3)c2n1 [Example 173]
4 | 124 | Cc1nc(N[C@H](C)c2cccc(C(F)F)c2F)c2cn(C3(CF)CC3)c(=O)c(N3C[C@H]4CC[C@@H](C3)O4)c2n1 [Example 54, 8-((1R,5S)-8-oxa-3-azabicyclo[3.2.1]octan-3-yl)-4-(((R)-1-(3-(difluoromethyl)-2-fluorophenyl)ethyl)amino)-6-(1-(fluoromethyl)cyclopropyl)-2-methylpyrido[4,3-d]pyrimidine-7(6H)-one]
5 | 110 | Cc1nc(N[C@H](C)c2cccc(C(F)F)c2F)c2cn(C3(CF)CC3)c(=O)c(N3CC(S(C)(=O)=O)C3)c2n1 [Example 111, (R)-4-((1-(3-(difluoromethyl)-2-fluorophenyl)ethyl)amino)-6-(1-(fluoromethyl)cyclorol-2-methyl-8-3-methylsulfonylazetidin-1-yl)pyrido[4,3-d]pyrimidine-7(6H)-one]
6 | 46.9 | Cc1nc(N[C@H](C)c2cccc(C(F)F)c2F)c2cn(C3(CF)CC3)c(=O)c(N3C[C@@H](F)[C@@H](F)C3)c2n1 [Example 107, 4-(((R)-1-(3-(difluoromethyl)-2-fluorophenyl)ethyl)amino)-8-((3S,4R)-3,4-difluoropyrrolidin-1-yl)-6-(1-(fluoromethyl)cyclopropyl)-2-methylpyrido[4,3-d]pyrimidine-7(6H)-one]

Continued, compound first:

Row | Compound | IC50 [nM]
7 | Cc1nc(N[C@H](C)c2cccc(C(F)F)c2F)c2cn(C3(CF)CC3)c(=O)c(-n3cc(C#N)cn3)c2n1 [Example 101, (R)-1-(4-((1-(3-(difluoromethyl)-2-fluorophenyl)ethyl)amino)-6-(1-(fluoromethyl)cyclopropyl)-2-methyl-7-oxo-6,7-dihydropyrido[4,3-d]pyrimidin-8-yl)-1H-pyrazole-4-carbonitrile] | 50.1
8 | Cc1nc(N[C@H](C)c2cccc(C(F)F)c2F)c2cn(C3(CF)CC3)c(=O)c(-c3cnn4c3CCC4)c2n1 [Example 170] | 138
9 | Cc1nc(N[C@H](C)c2cccc(C(F)F)c2F)c2cn(C3(CF)CC3)c(=O)c(NC[C@@H]3CCO3)c2n1 [Example 105, 4-(((R)-1-(3-(difluoromethyl)-2-fluorophenyl)ethyl)amino)-6-(1-(fluoromethyl)cyclopropyl)-2-methyl-8-((((S)-oxetan-2-yl)methyl)amino)pyrido[4,3-d]pyrimidine-7(6H)-one] | 98.4
10 | Cc1nc(N[C@H](C)c2cccc(C(F)F)c2F)c2cn(C3(CF)CC3)c(=O)c(C(F)(F)F)c2n1 [Example 2, (R)-4-((1-(3-(difluoromethyl)-2-fluorophenyl)ethyl)amino)-6-(1-(fluoromethyl)cyclopropyl)-2-methyl-8-(trifluoromethyl)pyrido[4,3-d]pyrimidine-7(6H)-one] | 127
11 | Cc1nc(N[C@H](C)c2cccc(S(F)(F)(F)(F)F)c2)c2cn(N3CCOCC3)c(=O)c(N3CCOCC3)c2n1 [Example 81, (R)-2-methyl-6,8-dimorpholine-4-((1-(3-(pentafluoro-λ^6-sulfanyl)phenyl)ethyl)amino)pyrido[4,3-d]pyrimidine-7(6H)-one] | 77
12 | Cc1nc(N[C@H](C)c2cccc(C(F)F)c2F)c2cn(C3(CF)CC3)c(=O)c(N3Cc4cn(C5CC5)nc4C3)c2n1 [Example 106] | 48.4
13 | Cc1nc(N[C@H](C)c2cccc(C(F)F)c2F)c2cn(C3(CF)CC3)c(=O)c(Nc3cnn(C)c3)c2n1 [Example 93, (R)-4-((1-(3-(difluoromethyl)-2-fluorophenyl)ethyl)amino)-6-(1-(fluoromethyl)cyclopropyl)-2-methyl-8-((1-methyl-1H-pyrazol-4-yl)amino)pyrido[4,3-d]pyrimidine-7(6H)-one] | 90.3
14 | Cc1nc(N[C@H](C)c2cccc(C(F)F)c2F)c2cn(N3CCOCC3)c(=O)c(OCC3(C)COC3)c2n1 [Example 121, (R)-4-((1-(3-(difluoromethyl)-2-fluorophenyl)ethyl)amino)-2-methyl-8-((3-methloxetan-3-yl)methoxy)-6-morpholinylpyrido[4,3-d]pyrimidine-7(6H)-one] | 107
15 | COC1(c2c(=O)n(C3(CF)CC3)cc3c(N[C@H](C)c4cccc(C(F)F)c4F)nc(C)nc23)CCOC1 (stereo partly drawn) [Example 140, 4-(((R)-1-(3-(difluoromethyl)-2-fluorophenyl)ethyl)amino)-6-(1-(fluoromethyl)cyclopropyl)-8-(3-methoxytetrahydrofuran-3-yl)-2-methylpyrido[4,3-d]pyrimidine-7(6H)-one] | 131
16 | COc1c(=O)n(C2(CF)CCN(C(C)=O)C2)cc2c(N[C@H](C)c3cccc(C(F)F)c3F)nc(C)nc12 (stereo partly drawn) [Example 8, 6-(1-acetyl-3-(fluoromethyl)pyrrolidin-3-yl)-4-(((R)-1-(3-(difluoromethyl)-2-fluorophenyl)ethyl)amino)-8-methoxy-2-methylpyrido[4,3-d]pyrimidine-7(6H)-one] | 92.9
17 | COc1c(=O)n(C2(CF)CCN(C(C)=O)C2)cc2c(N[C@H](C)c3cccc(C#N)c3C)nc(C)nc12 (stereo partly drawn) [Example 17, 3-((1R)-1-((6-(1-acetyl-3-(fluoromethyl)pyrrolidin-3-yl)-8-methoxy-2-methyl-7-oxo-6,7-dihydropyrido[4,3-d]pyrimidin-4-yl)amino)ethyl)-2-methylbenzonitrile] | 33.7
